For one assay, the system named is rats. Nature of the assay: Antagonistic effect to biochemical disturbances during the post-oligemic period in rats. In kind it is in vivo, rat. As to the method:
Oligemia in rats is caused by simultaneous bilateral occlusion of the carotid arteries associated with a slight decrease (8-9 kPa) of blood pressure and is maintained for 60 minutes. After removal of the occlusion, the post-oligemic period is followed for several days. In this case, the observation is continued up to the third day, at the time during which the brain accumulation of Ca^++ ions reaches the maximum.
The substances YS 035 or Nicardipine respectively, are administered to rats, 1, 5, 18, 24, 42 and 71 hours after having removed the carotid occlusion. The rats are sacrificed after 72 hours and the tissues are rapidly removed in order to determine their content of water, calcium and potassium.

For assay [1], the system named is mitochondria of liver of rats. Kind of assay: Inhibition of Ca2+-uptake in mitochondria of liver of rats. Type of assay: biochemical, rat. The conditions noted are these: 250 μM. As to the method: The mitochondria prepared according to classical methods are diluted to a concentration of 1.5 mg/cc in a medium of incubation which has the following composition:
After a period of 15 minutes of preincubation at 20° C. there was added ^45 CaCl2 (50 n mol/mg prot.).
In a manner analogous to the preceding experiments, the concentrations determined after two minutes were called the concentration at 0 period of time. The other controls were determined after 5 minutes, after 10 minutes and after 15 minutes. For the determination of Ca^2+, the experiment was carried out in a manner analogous to the preceding experiments.
The results are reported in Table 3 as the quantity of Ca transferred per mg of protein

The next assay concerns portions of the aorta. Kind of assay: Contraction of aorta portions by arachidonic acid after oral administration to rabbits (studies in vivo). Further details: species or system rabbit. As for the experimental part: Both substances YS 035 and Nicardipine have been administered orally for a period of three consecutive days to rabbits in such a manner that the last administration of each substance was carried out one hour prior to killing the animals. The portions of the aorta had then been incubated either in PRP as well as in the Krebs-Henseleit liquid.

The subject of assay [2] is synaptosomes of the brain of rats. Nature of the assay: Inhibition of the Ca2+-uptake in synaptosomes of the brain of rats. The conditions noted are these: 250 μM. In kind it is biochemical, rat. As to the method:
The synaptosomes have been prepared from an homogenate of the brain of rats by centrifugation in the gradient of Filcoll at 23,500 rpm for a period of 30 minutes and diluted to 1.5 mg/cc in the medium constituted by:
After 15 minutes of preincubation, ^45 CaCl2, final concentration 1 mM (0.2μCi/cc is added to the medium).
The first determination has been carried out two minutes after the addition. […] After each period, the reaction has been stopped by centrifugation and the radioactivity has been determined in the supernatant as well as in the pellet. The latter had been denatured previously with PCA, neutralized and subsequently centrifuged.

“And” between values parts separate entries of the source, which are not always exact repeats. Equal entries are not always repeated.

This note sets out measurements from US4956389A, “Compounds having calcium blocking activity” (priority 1982, dated 1990).

With `COc1ccc(CCN(C)CCc2ccc(OC)c(OC)c2)cc1OC` [YS 035, N-methyl-N-bis-(3,4-dimethoxy-phenyl-ethyl)amine], the “Cerebral concentration, Ca++” value with rats (3 mg·Kg^-1 P.O. 7×, 72 h, post-oligemic controls 28.2 ± 3.22) is 10.7 ± 2.46 mmol·Kg^-1 of dry substance. Also, the “Cerebral concentration, H2O” value with rats (3 mg·Kg^-1 P.O. 7×, 72 h, post-oligemic controls 80.1 ± 0.37) came out at 79.0 ± 0.44%. Besides, the “Cerebral concentration, K+” value with rats (3 mg·Kg^-1 P.O. 7×, 72 h, post-oligemic controls 366.2 ± 12.58) was 420.0 ± 11.85 mmol·Kg^-1 of dry substance. Also, in the assay on rats (rat, in vivo), the “intracellular accumulation of Ca++ ions (in words)” value is given as “reduce substantially” and the “seriousness of the cerebral edema (in words)” value is given as “capable of reducing the seriousness of the cerebral edema”. Besides, the “Ca2+-uptake” value in assay [1] (20° C., control 14.3) is given as 11.0 n g ions/mg prot. Besides, the “inhibitory activity on the uptake of Ca (in words)” value in assay [1] (compared with nifedipine) was “slightly inferior to the activity of nifedipine”. The “Amplitude of contraction, medium Krebs, individual values” in the assay on portions of the aorta (10 mg·Kg^-1 P.O., Krebs, controls 12 ± 2.3) was -6 mm and +7 mm. In addition, the “Amplitude of contraction, PRP, individual values” with portions of the aorta (10 mg·Kg^-1 P.O., PRP, controls 30 ± 8.0) is recorded as “+28 mm”. Also, the “site of action (in words)” value in the assay with portions of the aorta (aortic endothelial level, particularly PGI2) is on record as “act directly on the synthesis of prostaglandin”. The “inhibitory activity on the calcium uptake (in words)” value in assay [2] is recorded as “comparable to the activity exhibited by Nifedipine”. Also, in assay [2] (45CaCl2 1 mM, control 80 ± 7), the “Ca2+-uptake” value was determined as 47 ± 4 n g ions/mg prot/15 min.
